Experimental data: a melting point compilation (Tetko et al.; mined from patent text by program, amines drawn as free bases though some values may be those of a salt)

SMILES | melting point
O=C1OC(c2ccccc2)C(c2ccccc2)=C1C(=O)N1CCOCC1 (stereo unspecified) | 204 to 206 °C
C#CCc1c(C)nc2c(OCc3ccccc3C)nccn12 | 123 to 124 °C
COC(=O)CSCCn1cc(C)c(=O)[nH]c1=O | 75 °C
O=S(=O)(NC1CC1)c1ccc(Nc2nc(OCC3CCCCC3)c3nc[nH]c3n2)cc1 | 220 to 221 °C
CC(=O)N1CCc2cc(C(=O)C(C)Br)ccc21 (stereo unspecified) | 140 to 142 °C
CCc1nc2c(s1)CC(COS(=O)(=O)c1ccc(C)cc1)CC2 (stereo unspecified) | 54 to 56 °C
CCOC(=O)c1cc(=O)c2c(ccc3nc(C(=O)OC)cc(O)c32)o1 | 247 to 248 °C
CCOC(=O)c1cnn2c(-c3cccc(C(F)(F)F)c3)ccnc12 | 97 to 99 °C
Nc1cccc(-c2ccc(CCN3CCN(C(=O)NCc4ccccc4)CC3)cc2)n1 | 172 to 175 °C
COC(=O)c1ccc2ncc(C3CCN(C)CC3)c-2[nH]1 | 200 to 201 °C
O=C1CCSc2cc(F)ccc21 | 61 to 66 °C
CCOC(=O)CC1CCc2cncn2C1c1ccc(C#N)cc1 (stereo unspecified) | 126 to 127 °C
O=C(Nc1ccc(C(=O)Nc2nnc(-c3cc(Cl)cc(Cl)c3O)s2)cc1)c1ccccc1 | 301 °C
CNC(=O)n1nc(Oc2c(F)cc(C(F)(F)F)cc2Cl)cc1C | 87 to 88 °C
CC(C)(C)c1cc(C=C2Sc3ccccc3N(CC(N)=O)C2=O)cc(C(C)(C)C)c1O | 137 to 144 °C
COCCOc1ccc2cc3ccccc3cc2c1 | 131 to 134 °C
Cn1c(=O)n(CCC[C@@H](NS(=O)(=O)c2ccc(-c3ccccc3)cc2)C(=O)O)c(=O)c2ccccc21 | 222 to 224 °C
Cc1cc(-c2cc3cc(OCCNC[C@H](O)COc4ccccc4)ccc3o2)no1 | 144 to 146 °C
CCOC(=O)C1=C(C)NC(COC)=C(C(=O)OCC)C1c1ccc(S(C)(=O)=O)cc1 (stereo unspecified) | 156 to 158 °C
CNc1c(F)cccc1C(C)=O | 26 to 28 °C
CC(c1oc2ccccc2c(=O)c1-c1cccc(F)c1)n1nc(-c2ccc3c(c2)CCO3)c2c(N)ncnc21 (stereo unspecified) | 238 to 241 °C
O=c1c(Cc2ccc(-c3ccccc3)cc2)coc2cc(OS(=O)(=O)C(F)(F)F)ccc12 | 110 °C
COC(=O)c1cc(C)sc1NC(=O)C(C)C | 63 to 65 °C
CC1Oc2c(cc(CN3CCN(c4ccc(C#N)cc4)CC3)cc2C2CC2)NC1=O (stereo unspecified) | 194 to 196 °C

SMILES | melting point
Cc1cc(-n2ccnc2)c2cccc(OCc3c(Cl)ccc(S(=O)(=O)N4CCC[C@H]4C(=O)NCCc4cccnc4)c3Cl)c2n1 | 117 °C
N#Cc1ncnc2[nH]ccc12 | 237 to 238 °C
Fc1cccc(CSc2nnc(-c3ccc4occc4c3)o2)c1 | 112 to 113 °C
O=C(c1ccccc1)c1cccnc1Cl | 35 to 37 °C
FCC1(CF)OC1(CBr)c1cc(C(F)(F)F)ccc1Cl (stereo unspecified) | 54 to 55 °C
Cn1ccnc1Sc1ccc([N+](=O)[O-])cc1 | 120 to 121 °C
CCOC(=O)Cc1csc(NC(=O)C(CC2CCCC2)c2ccc(NC(=O)c3cccnc3)cc2)n1 (stereo unspecified) | 195 to 200 °C
COc1ccc2c(c1)C(c1ccc(Cl)cc1)=NC(CC(=O)NC1CCCCC1)c1nnc(C)n1-2 (stereo unspecified) | > 260 °C
CC(C)(C)OC(=O)N1CCN(c2ccc(NC(=O)Nc3cc(Cl)ccc3NS(C)(=O)=O)cc2)CC1 | 127 °C
CC(=O)c1cc(OCc2ccccc2)cc(NC(=O)C(C)(C)Br)c1O | 88 to 90 °C
CCOC(=O)c1cc(Cc2cccc3ccccc23)sc1NCC(C)C | 57 to 59 °C
Cc1ccc(S(=O)(=O)OC2=COC2)cc1 | 86 to 88 °C
Cc1c(-c2ccc(O)cc2O)c(=O)oc2cc(F)ccc12 | 266 to 268 °C
CS(=O)(=O)Cc1ccc(C(=O)c2ccc(Cl)cc2)cc1 | 164 to 166 °C
CC(C)c1nn(-c2ccc(C(F)(F)F)cn2)cc1CCCCO | 67 to 68 °C
NC(=O)c1nc(-c2cnc3nc[nH]c3c2)nc2c1[nH]c(=O)n2-c1ccccc1C(F)(F)F | 320 °C
N#Cc1c(CF)nn(-c2c(Cl)cc(C(F)(F)F)cc2Cl)c1N | 139 to 141 °C
CCCCCCCCCCCCn1nnnc1NC(=O)Nc1c(C(C)C)cccc1C(C)C | 80 to 88 °C
O=c1c2c(nc3n1CCc1c-3[nH]c3cc(Cl)cc(Cl)c13)CCCC2 | 296 to 297 °C
CC#CCOc1ccc(S(=O)(=O)C(C(=O)O)C2CCN(C(=O)c3ccccc3)CC2)cc1 (stereo unspecified) | 90 °C
C=CCOc1cccc(C(=O)c2ccccc2C(=O)O)c1 | 109 °C
CC(C)(C#N)ON1C(C)(C)CC(OC(=O)c2ccccc2)CC1(C)C | 128 to 129 °C
CCCS(=O)(=O)c1nc[nH]n1 | 116 to 117 °C
Cc1ccc([N+](=O)[O-])c(OCc2ccccc2)c1 | 49 to 51 °C

SMILES | melting point
O=C(O)CCC1CCC(=O)N1 (stereo unspecified) | 125 to 127 °C
CCOC(=O)c1c(Cl)c2ccc(C)nc2n(C)c1=O | 108 to 111 °C
[N-]=[N+]=C1c2ccccc2-c2ccc(F)cc21 | 89 to 90 °C
O=C(O)c1ccc(S(=O)(=O)Oc2ccc(-c3ccc(-c4c(Cc5ccccc5)oc5ccccc45)cc3)cc2[N+](=O)[O-])cc1O | 75 °C
COc1ccc(CN[C@@H]2CCCC[C@H]2NCc2ccc(OC)cc2)cc1 (relative stereo) | 110 to 112 °C
O=C(Nc1ccc2cc(CN3CCCC3)cnc2c1)N1CCC(c2ccc(Cl)cc2)CC1 | 249 to 251 °C
CCOC(=O)c1cc(O)cc2cc(-c3ccc(O)cc3)oc12 | 221 to 223 °C
NNc1nc2ccc(C(F)(F)F)cc2n(OCc2ccccc2)c1=O | 174 to 176 °C
COC(=O)c1ccc(SC)c(N)c1 | 63 to 65 °C
COC(=O)c1cc2cc(-c3ccc(C)cc3)ccc2nc1C | 84 to 87 °C
CC1(C)OC(c2cccc(S(C)(=O)=O)c2)=C(c2ccccc2)C1=O | 190 to 191 °C
O=C(O)CO[C@@H]1CCCC[C@H]1NC(=S)Nc1ccccc1 (relative stereo) | 147 to 149 °C
Cc1c(Cl)cccc1S(=O)(=O)Nc1nc(CC(=O)N(C)C)cs1 | 84 °C
CCC1(OC)CCc2c(C)c(O)c(C)c(C)c2O1 (stereo unspecified) | 96.5 to 98.5 °C
O=c1cc(C(F)(F)F)[nH]c(=O)n1-c1cc(O)c(Cl)cc1F | 68 to 72 °C
O=C1CCC(c2ccccc2)(c2ccccc2)[C@@H]2CN(C(=O)Cc3c(Cl)cccc3Cl)C[C@H]12 (racemic) | 201 °C
Cc1cccc(C)c1CNc1cc(C(=O)N2CC2)cc2c1nc(C)n2C | 201 to 202 °C
O=c1c2ccccc2[nH]c2c(OCCCCN(CCCl)CCCl)cccc12 | 119 °C
CCCC1Cc2c3c(c(C)c(C)c2C1=O)OC(C(=O)O)C3 (stereo unspecified) | 161 °C
c1cc2c3c(c1)[C@H]1CCC[C@H]1N3CCNCC2 (relative stereo) | > 130 °C
Cc1cc(C)c(Nc2nc(C)ccc2S(=O)(=O)c2ccc(OCCCO)cc2)c(C)c1 | 152 to 153 °C
CC(=O)Nc1cccc(-c2cccc(-n3cnc4cc(C(F)(F)F)ccc43)c2)c1 | 118 to 120 °C
O=C1CCCN1c1cccc2cccnc12 | 118 to 120 °C
